Source: EP0033503A2, “Medicaments with cytostatic activity and use of cyclic compounds, in which the heterocyclic N-ring atoms are substituted by several glycidyl groups, in pharmaceutical compositions” (Henkel Kommanditgesellschaft auf Aktien, priority 1980, dated 1981)
Read-outs that look alike come from different tables or passages of the source.

Test system: Tumorart P 388 (Leukämie)
Test: Survival of mice bearing P 388 leukemia (NCI protocol 1200), T/C
Format: in vivo, Maus
Conditions: for Testergebnis in % T/C: repeat experiment
Description: Die nachfolgenden Versuche wurden durchgeführt nach Testvorschriften des National Cancer Institute Bethesda, Maryland 200014, veröffentlicht in Cancer Chemotherapy Reports" Part. 3, September 1972, Vol. 3, Nr. 2. Als Wirksubstanz wurde 1,3-Diglycidyl-benzimidazolon des i vorstehenden Beispiels 1 verwendet. Die Substanz wurde als wäßrige, 1%ige Injektionslösung unmittelbar vor der Applikation frisch hergestellt.
Bei Mäusen wurde gemäß Protokoll 1200 (Seite 91, c.) die Tumorart P 388 (Leukämie) i.p. mit 10^6 Zellen/Maus gesetzt. Die unbehandelten Tiere hatten eine mittlere überlebensdauer von 9,9 Tagen.
Es wird der Wirkstoff appliziert. Der Wirkstoff wird dabei in 9.Gaben in unterschiedlichen Versuchsreihen einmal zu je 200 mg/kg und in einer anderen zu 100 mg/kg und in einer dritten Versuchsreihe zu je 50 mg/kg verabreicht. In beiden Fällen wird eine signifikante Verlängerung der Lebensdauer der behandelten Testtiere gegenüber der Kontrollgruppe der nicht behandelten Tiere erzielt. […] Bei der Testgruppe mit der Dosis von 100 mg/kg beträgt die durchschnittliche Lebenserwartung der Versuchstiere 18 Tage, T/C 181 %. Die Gruppe mit der Dosis 50 mg/kg hatte eine durchschnittliche Lebenserwartung von 15,3 Tagen, T/C 154 %. […]

Structure (SMILES) | Testergebnis in % T/C (100 mg/kg) [%] | Testergebnis in % T/C (200 mg/kg) [%] | response vs control in vivo at 100 mg/kg (Mus musculus, P388, 100 mg/kg per single dose, 9 doses, first test series, read-out: Verlängerungsrate T/C (Testergebnis in % T/C)) [%] | response vs control in vivo at 200 mg/kg (Mus musculus, P388, 200 mg/kg per single dose, 9 doses, first test series, read-out: Verlängerungsrate T/C (Testergebnis in % T/C)) [%] | durchschnittliche Lebenserwartung der Versuchstiere (50 mg/kg per single dose, 9 doses) | durchschnittliche Lebenserwartung der Versuchstiere (100 mg/kg per single dose, 9 doses) [Tage] | response vs control in vivo at 25 mg/kg (Mus musculus, P388, read-out: Testergebnis T/C (T/C-Wert), 25 mg/kg, second series, unit inferred) [%] | response vs control in vivo at 50 mg/kg (Mus musculus, P388, read-out: Testergebnis T/C (T/C-Wert), 50 mg/kg per single dose, first series, unit inferred) [%] | response vs control in vivo at 50 mg/kg (Mus musculus, P388, read-out: Testergebnis T/C (T/C-Wert), 50 mg/kg, second series, unit inferred) [%] | response vs control in vivo at 100 mg/kg (Mus musculus, P388, read-out: Testergebnis T/C (T/C-Wert), 100 mg/kg per single dose, first series, unit inferred) [%] | response vs control in vivo at 100 mg/kg (Mus musculus, P388, read-out: Testergebnis T/C (T/C-Wert), 100 mg/kg, second series, unit inferred) [%] | response vs control in vivo at 200 mg/kg (Mus musculus, P388, read-out: Testergebnis T/C (T/C-Wert), 200 mg/kg, second series, unit inferred) [%] | response vs control in vivo at 50 mg/kg (Mus musculus, P388, read-out: Verlängerungsrate T/C (Testergebnis in % T/C), 50 mg/kg per single dose, 9 doses, first test series) [%] | response vs control in vivo at 100 mg/kg (Mus musculus, P388, read-out: Verlängerungsrate T/C (Testergebnis in % T/C), 100 mg/kg per single dose, 9 doses, first test series) [%]
O=C1N(CC2CO2)C(=O)C(c2ccccc2)(c2ccccc2)N1CC1CO1 (centres unmarked) [R5 C6H5-R6 C6H5-, Diglycidyl-diphenylhydantoin] | 136 | 149 | 122 | 130 | – | – | – | – | – | – | – | – | – | –
CCC1(CC)C(=O)N(CC2CO2)C(=O)N(CC2CO2)C1=O (centres unmarked) [Beispiel 10, 1,3-Diglycidyl-5,5-diethylbarbitursäure] | – | – | – | – | 15,3 Tage | 22 | 94 | 147 | 111 | 211 | 158 | 230 | 147 | 211
